Assay results as given in the supplement of paper PMC10627819.

Assays:
[1] = system: B. subtilis 168; test: fitness (endpoint OD595 vs no drug) (fraction); higher = more growth
Procedure, shortened: (§1)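 Bacterial fitness was scored as optical density at the stationary-phase transition relative to the robust mean of no-drug control wells. Scores are capped at 1. The growth data were OD595 readings every 30 min for 14 h at 37 °C, background-subtracted against the first reading, from 384-well plates inoculated at OD595 0.01 in TSB, LB Lennox or CY.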

[2] = system: S. pneumoniae D39V; test: as above
Procedure, shortened: as §1
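Also: OD595 on entry to stationary phase over no-drug wells; at most 1.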

O=C(O)c1cn(C2CC2)c2cc(N3CCNCC3)c(F)cc2c1=O [Ciprofloxacin] + CN(C)[C@@H]1C(O)=C(C(N)=O)C(=O)[C@@]2(O)C(O)=C3C(=O)c4c(O)ccc(Cl)c4[C@@](C)(O)[C@H]3C[C@@H]12 [Chlortetracycline]
Conditions | fitness
[1], first compound 0.0098 µg/mL, partner 0.0475 µg/mL | 0.886
[1], first compound 0.0098 µg/mL, partner 0.095 µg/mL | 0.82
[1], first compound 0.0098 µg/mL, partner 0.19 µg/mL | 0.658
[1], first compound 0.0195 µg/mL, partner 0.0475 µg/mL | 0.776
[1], first compound 0.0195 µg/mL, partner 0.095 µg/mL | 0.692
[1], first compound 0.0195 µg/mL, partner 0.19 µg/mL | 0.582
[1], first compound 0.039 µg/mL, partner 0.19 µg/mL | 0.307
[2], first compound 0.125 µg/mL, partner 0.012 µg/mL | 0.867
[2], first compound 0.125 µg/mL, partner 0.024 µg/mL | 0.748
[2], first compound 0.125 µg/mL, partner 0.048 µg/mL | 0.35
[2], first compound 0.125 µg/mL, partner 0.375 µg/mL | 0.0283
[2], first compound 0.125 µg/mL, partner 0.75 µg/mL | 0.038
[2], first compound 0.125 µg/mL, partner 1.5 µg/mL | 0.0287
[2], first compound 0.25 µg/mL, partner 0.375 µg/mL | 0.0322
[2], first compound 0.25 µg/mL, partner 0.75 µg/mL | 0.0502
[2], first compound 0.25 µg/mL, partner 1.5 µg/mL | 0.0591
[2], first compound 0.5 µg/mL, partner 0.048 µg/mL | 0.323
[2], first compound 0.5 µg/mL, partner 0.75 µg/mL | 0.0332
[2], first compound 0.5 µg/mL, partner 1.5 µg/mL | 0.0454

[2], first compound 0.25 µg/mL, one replicate
Conditions | fitness
partner 0.012 µg/mL | 0.74
partner 0.024 µg/mL | 0.447
partner 0.048 µg/mL | 0.237

CN(C)[C@@H]1C(O)=C(C(N)=O)C(=O)[C@@]2(O)C(O)=C3C(=O)c4c(O)ccc(Cl)c4[C@@](C)(O)[C@H]3C[C@@H]12 [Chlortetracycline] + CN(C)c1cc(NC(=O)CNC(C)(C)C)c(O)c2c1C[C@H]1C[C@H]3[C@H](N(C)C)C(O)=C(C(N)=O)C(=O)[C@@]3(O)C(O)=C1C2=O [Tigecycline]
Conditions | fitness
[1], first compound 0.0475 µg/mL, partner 0.039 µg/mL | 0.924
[1], first compound 0.0475 µg/mL, partner 0.078 µg/mL | 0.873
[1], first compound 0.0475 µg/mL, partner 0.156 µg/mL | 0.823
[1], first compound 0.095 µg/mL, partner 0.039 µg/mL | 0.828
[1], first compound 0.095 µg/mL, partner 0.078 µg/mL | 0.781
[1], first compound 0.095 µg/mL, partner 0.156 µg/mL | 0.784
[1], first compound 0.19 µg/mL, partner 0.039 µg/mL | 0.651
[1], first compound 0.19 µg/mL, partner 0.078 µg/mL | 0.605
[1], first compound 0.19 µg/mL, partner 0.156 µg/mL | 0.5
[2], first compound 0.012 µg/mL, partner 0.65 µg/mL | 0.943
[2], first compound 0.012 µg/mL, partner 1.3 µg/mL | 0.98
[2], first compound 0.012 µg/mL, partner 2.6 µg/mL | 0.866
[2], first compound 0.024 µg/mL, partner 0.65 µg/mL | 0.949
[2], first compound 0.024 µg/mL, partner 1.3 µg/mL | 0.909
[2], first compound 0.024 µg/mL, partner 2.6 µg/mL | 0.862
[2], first compound 0.048 µg/mL, partner 0.65 µg/mL | 0.867
[2], first compound 0.048 µg/mL, partner 1.3 µg/mL | 0.814
[2], first compound 0.048 µg/mL, partner 2.6 µg/mL | 0.815
[2], first compound 0.375 µg/mL, partner 0.325 µg/mL | 0.0315
[2], first compound 0.375 µg/mL, partner 0.65 µg/mL | 0.0403
[2], first compound 0.375 µg/mL, partner 1.3 µg/mL | 0.0368
[2], first compound 0.75 µg/mL, partner 0.325 µg/mL | 0.0625
[2], first compound 0.75 µg/mL, partner 0.65 µg/mL | 0.0555
[2], first compound 0.75 µg/mL, partner 1.3 µg/mL | 0.0691
[2], first compound 1.5 µg/mL, partner 0.325 µg/mL | 0.0404
[2], first compound 1.5 µg/mL, partner 0.65 µg/mL | 0.0304
[2], first compound 1.5 µg/mL, partner 1.3 µg/mL | 0.0788

fitness, [1], one replicate
Conditions | first compound 0.0475 µg/mL | first compound 0.095 µg/mL | first compound 0.19 µg/mL
partner 0.125 µg/mL | 0.996 | 0.974 | 0.827
partner 0.25 µg/mL | 0.915 | 0.874 | 0.763
partner 0.5 µg/mL | 0.933 | 0.879 | 0.84

CN(C)[C@@H]1C(O)=C(C(N)=O)C(=O)[C@@]2(O)C(O)=C3C(=O)c4c(O)ccc(Cl)c4[C@@](C)(O)[C@H]3C[C@@H]12 [Chlortetracycline] + CCC(C)C1C(=O)NC(=C)C(=O)NC(C(=O)NC(CSCC(C(=O)N1)NC(=O)/C(=C/C)/NC(=O)C(C(C)CC)N)C(=O)NC2C(SCC(NC(=O)CNC(=O)C3CCCN3C2=O)C(=O)NC(CCCCN)C(=O)NC4C(SCC(NC(=O)CNC(=O)C(NC(=O)C(NC(=O)C(NC(=O)CNC4=O)C)CC(C)C)CCSC)C(=O)NC(CC(=O)N)C(=O)NC(CCSC)C(=O)NC(CCCCN)C(=O)NC5C(SCC6C(=O)NC(C(=O)NC(CSC(C(C(=O)N6)NC(=O)C(NC5=O)C)C)C(=O)NC(CO)C(=O)NC(C(C)CC)C(=O)NC(CC7=CN=CN7)C(=O)NC(C(C)C)C(=O)NC(=C)C(=O)NC(CCCCN)C(=O)O)CC8=CN=CN8)C)C)C)CC(C)C [Nisin]
main component drawn
Conditions | fitness
[1], first compound 0.0475 µg/mL, partner 0.5 µg/mL | 0.902
[1], first compound 0.0475 µg/mL, partner 1 µg/mL | 0.849
[1], first compound 0.0475 µg/mL, partner 2 µg/mL | 0.452
[1], first compound 0.095 µg/mL, partner 0.5 µg/mL | 0.794
[1], first compound 0.095 µg/mL, partner 1 µg/mL | 0.733
[1], first compound 0.095 µg/mL, partner 2 µg/mL | 0.387
[1], first compound 0.19 µg/mL, partner 0.5 µg/mL | 0.605
[1], first compound 0.19 µg/mL, partner 1 µg/mL | 0.454
[1], first compound 0.19 µg/mL, partner 2 µg/mL | 0.116
[2], first compound 0.012 µg/mL, partner 0.4275 µg/mL | 0.973
[2], first compound 0.012 µg/mL, partner 0.855 µg/mL | 0.804
[2], first compound 0.012 µg/mL, partner 1.71 µg/mL | 0.0763
[2], first compound 0.024 µg/mL, partner 0.4275 µg/mL | 0.909
[2], first compound 0.024 µg/mL, partner 0.855 µg/mL | 0.526
[2], first compound 0.024 µg/mL, partner 1.71 µg/mL | 0.0832
[2], first compound 0.048 µg/mL, partner 0.4275 µg/mL | 0.766
[2], first compound 0.048 µg/mL, partner 1.71 µg/mL | 0.0976
[2], first compound 0.375 µg/mL, partner 1.6 µg/mL | 0.014
[2], first compound 0.375 µg/mL, partner 3.2 µg/mL | 0.0066
[2], first compound 0.375 µg/mL, partner 6.4 µg/mL | 0.0151
[2], first compound 0.75 µg/mL, partner 1.6 µg/mL | 0.0251
[2], first compound 0.75 µg/mL, partner 3.2 µg/mL | 0.0392
[2], first compound 0.75 µg/mL, partner 6.4 µg/mL | 0.0332
[2], first compound 1.5 µg/mL, partner 1.6 µg/mL | 0.0279
[2], first compound 1.5 µg/mL, partner 3.2 µg/mL | 0.0271
[2], first compound 1.5 µg/mL, partner 6.4 µg/mL | 0.064

fitness, [1], one replicate, main component drawn
Conditions | partner 1.25 µg/mL | partner 1.6 µg/mL | partner 2.5 µg/mL | partner 3.2 µg/mL | partner 4 µg/mL | partner 5 µg/mL | partner 6.4 µg/mL | partner 8 µg/mL | partner 16 µg/mL
first compound 0.0475 µg/mL | 0.902 | 0.609 | 0.642 | 0.0268 | 0.0247 | 0.0756 | 0.0534 | 0.006 | 0
first compound 0.095 µg/mL | 0.805 | 0.49 | 0.607 | 0.0306 | 0.0278 | 0.0684 | 0.0417 | 0.0191 | 0.0123
first compound 0.19 µg/mL | 0.686 | 0.0405 | 0.338 | 0.0435 | 0.0329 | 0.0442 | 0.0404 | 0.0227 | 0.0213

CN(C)[C@@H]1C(O)=C(C(N)=O)C(=O)[C@@]2(O)C(O)=C3C(=O)c4c(O)ccc(Cl)c4[C@@](C)(O)[C@H]3C[C@@H]12 [Chlortetracycline] + CN[C@@H]1[C@H](O[C@H]2[C@H](O[C@H]3[C@H](O)[C@@H](O)[C@H](N=C(N)N)[C@@H](O)[C@@H]3N=C(N)N)O[C@@H](C)[C@]2(O)C=O)O[C@@H](CO)[C@H](O)[C@H]1O [Streptomycin]
fitness
Conditions | partner 2 µg/mL | partner 4 µg/mL | partner 8 µg/mL
[1], first compound 0.0475 µg/mL | 0.863 | 0.729 | –
[1], first compound 0.095 µg/mL | 0.735 | 0.601 | –
[1], first compound 0.19 µg/mL | 0.473 | 0.367 | 0.0988
[2], first compound 0.012 µg/mL | – | 0.898 | 0.829
[2], first compound 0.024 µg/mL | – | 0.827 | 0.794
[2], first compound 0.048 µg/mL | – | 0.762 | 0.779
[2], first compound 0.375 µg/mL | 0.0439 | 0.0457 | 0.0281
[2], first compound 0.75 µg/mL | 0.0196 | 0.0558 | 0.0751
[2], first compound 1.5 µg/mL | 0.0385 | 0.0525 | 0.0578

fitness, [2], one replicate
Conditions | first compound 0.012 µg/mL | first compound 0.024 µg/mL | first compound 0.048 µg/mL
partner 2 µg/mL | 0.886 | 0.861 | 0.794
partner 16 µg/mL | 0.757 | 0.72 | 0.619

CN(C)[C@@H]1C(O)=C(C(N)=O)C(=O)[C@@]2(O)C(O)=C3C(=O)c4c(O)ccc(Cl)c4[C@@](C)(O)[C@H]3C[C@@H]12 [Chlortetracycline] + CC1=C(C(=O)O)N2C(=O)[C@@H](NC(=O)[C@H](N)c3ccccc3)[C@H]2SC1 [Cephalexin]
fitness
Conditions | first compound 0.0475 µg/mL | first compound 0.095 µg/mL | first compound 0.19 µg/mL | first compound 0.375 µg/mL | first compound 0.75 µg/mL | first compound 1.5 µg/mL
[1], partner 0.125 µg/mL | 0.922 | 0.708 | 0.437 | – | – | –
[1], partner 0.25 µg/mL | 0.918 | 0.818 | 0.534 | – | – | –
[1], partner 0.5 µg/mL | 0.852 | 0.811 | 0.551 | – | – | –
[2], partner 1 µg/mL | – | – | – | 0.0846 | 0.0412 | 0.0388
[2], partner 2 µg/mL | – | – | – | 0.0341 | 0.0584 | 0.0428
[2], partner 4 µg/mL | – | – | – | 0.0429 | 0.0665 | 0.0379

fitness, one replicate
Conditions | first compound 0.012 µg/mL | first compound 0.024 µg/mL | first compound 0.0475 µg/mL | first compound 0.048 µg/mL | first compound 0.095 µg/mL | first compound 0.19 µg/mL
[1], partner 1 µg/mL | – | – | 0.936 | – | 0.827 | 0.606
[2], partner 0.125 µg/mL | 0.933 | 0.86 | – | 0.797 | – | –
[2], partner 0.25 µg/mL | 0.872 | 0.809 | – | 0.762 | – | –
[2], partner 0.5 µg/mL | 0.883 | 0.84 | – | 0.706 | – | –
